What was measured:
[1] = Acute toxicity in juvenile zebrafish assessed as fatality rate at 50 uM after 24 hrs; details: in vivo
[2] = Bioavailability in Sprague-Dawley rat at 5 mg/kg, ip administered as single dose measured upto 24 hrs by LC-MS/MS analysis; details: in vivo
[3] = in vivo; details: Sprague-Dawley, rat, ip, 5 mg/kg
Description: Apparent clearance during terminal phase in Sprague-Dawley rat at 5 mg/kg, ip administered as single dose measured upto 24 hrs by LC-MS/MS analysis

[4] = Metabolic stability in Sprague-Dawley rat liver microsomes assessed as intrinsic clearance measured upto 300 mins in presence of NADP+ by HPLC analysis
[5] = Acute toxicity in juvenile zebrafish assessed as fatality rate at 100 uM after 24 hrs; details: in vivo
[6] = Acute toxicity in juvenile zebrafish assessed as fatality rate at 20 uM after 48 hrs; details: in vivo
[7] = Subacute toxicity in PND4 Sprague-Dawley rat assessed as irreversible opaqueness of lens at 30 to 50 mg/kg/day, po administered via gavage for 14 days and measured for 28 days; assay type: organism-based; details: in vivo, 672 h
[8] = Oral bioavailability in Sprague-Dawley rat at 5 mg/kg administered as single dose measured upto 24 hrs by LC-MS/MS analysis; assay type: ADME, organism-based; details: in vivo
[9] = Subacute toxicity in PND14 Sprague-Dawley rat assessed as quadriplegia at 100 mg/kg/day, po administered via gavage for 14 days and measured for 28 days; assay type: organism-based; details: in vivo, 672 h
[10] = Inhibition of capsid protein VP1 in Enterovirus 71 (FY)-Luc infected in human RD cells assessed as reduction in virus-induced cell death preincubated for 24 hrs followed by […] substrate addition and measured after 5 mins by chemiluminescence analysis; assay type: cell-based, Enterovirus A71; details: Enterovirus A
[11] = Cmax in Sprague-Dawley rat at 1 mg/kg, iv administered as single dose measured upto 24 hrs by LC-MS/MS analysis; assay type: ADME, organism-based; set-up: dose 1 mg/kg, route intravenous; details: in vivo
[12] = Apparent half-life of the terminal disposition phase in Sprague-Dawley rat at 1 mg/kg, iv administered as single dose measured upto 24 hrs by LC-MS/MS analysis; assay type: ADME, organism-based; details: in vivo, read-out: t1/2 lambda z (converted)
[13] = Subacute toxicity in PND14 Sprague-Dawley rat assessed as hair loss at 100 mg/kg/day, po administered via gavage for 14 days and measured for 28 days; assay type: organism-based; details: in vivo, 672 h
[14] = Subacute toxicity in PND7 Sprague-Dawley rat assessed as irreversible opaqueness of lens at 30 to 50 mg/kg/day, po administered via gavage for 14 days and measured for 28 days; assay type: organism-based; details: in vivo, 672 h
[15] = Subacute toxicity in PND21 Sprague-Dawley rat assessed as development of opaque lens at 100 mg/kg/day, po administered via gavage for 14 days and measured for 28 days; assay type: organism-based; details: in vivo, 672 h
[16] = in vivo; details: Sprague-Dawley, rat, ip, 5 mg/kg; remark: listed apart in the source
Description: Apparent half-life of the terminal disposition phase in Sprague-Dawley rat at 5 mg/kg, ip administered as single dose measured upto 24 hrs by LC-MS/MS analysis

[17] = Subacute toxicity in PND21 Sprague-Dawley rat assessed as quadriplegia at 100 mg/kg/day, po administered via gavage for 14 days and measured for 28 days; assay type: organism-based; details: in vivo, 672 h
[18] = Cmax in Sprague-Dawley rat at 5 mg/kg, po administered as single dose measured upto 24 hrs by LC-MS/MS analysis; assay type: ADME, organism-based; set-up: dose 5 mg/kg, route oral; details: in vivo
[19] = Acute toxicity in juvenile zebrafish assessed as fatality rate at 100 uM after 48 hrs; details: in vivo
[20] = Subacute toxicity in PND14 Sprague-Dawley rat assessed as development of opaque lens at 100 mg/kg/day, po administered via gavage for 14 days and measured for 28 days; assay type: organism-based; details: in vivo, 672 h
[21] = in vivo; details: zebrafish
Description: Acute toxicity in juvenile zebrafish assessed as fatality rate at 150 uM after 48 hrs

[22] = Acute toxicity in juvenile zebrafish assessed as fatality rate at 200 uM after 24 hrs; details: in vivo
[23] = Cytotoxicity against human RD cells assessed as reduction in cell viability incubated for 24 hrs by MTT assay; details: rd
[24] = Subacute toxicity in PND4 Sprague-Dawley rat assessed as animal survival at 30 to 50 mg/kg/day, po administered via gavage for 14 days and measured for 28 days; assay type: organism-based; details: in vivo
[25] = Subacute toxicity in PND14 Sprague-Dawley rat assessed as lens fiber loosening and vacuolar degeneration at 100 mg/kg/day, po administered via gavage for 14 days and measured at day 28 by hematoxylin and eosin staining based histopathological analysis; assay type: organism-based; details: in vivo, 336 h
[26] = AUC (0 to t) in Sprague-Dawley rat at 1 mg/kg, iv administered as single dose measured upto 24 hrs by LC-MS/MS analysis; assay type: ADME, organism-based; details: in vivo
[27] = Acute toxicity in juvenile zebrafish assessed as fatality rate at 20 uM after 24 hrs; details: in vivo
[28] = Apparent half-life of the terminal disposition phase in Sprague-Dawley rat at 5 mg/kg, po administered as single dose measured upto 24 hrs by LC-MS/MS analysis; assay type: ADME, organism-based; details: in vivo, read-out: t1/2 lambda z (converted)
[29] = in vivo; details: Sprague-Dawley, rat, ip, 5 mg/kg; remark: listed apart in the source
Description: Cmax in Sprague-Dawley rat at 5 mg/kg, ip administered as single dose measured upto 24 hrs by LC-MS/MS analysis

[30] = Acute toxicity in juvenile zebrafish assessed as fatality rate at 200 uM after 48 hrs; details: in vivo
[31] = Tmax in Sprague-Dawley rat at 5 mg/kg, po administered as single dose measured upto 24 hrs by LC-MS/MS analysis; assay type: ADME, organism-based; details: in vivo
[32] = Subacute toxicity in PND21 Sprague-Dawley rat assessed as hair loss at 100 mg/kg/day, po administered via gavage for 14 days and measured for 28 days; assay type: organism-based; details: in vivo, 672 h
[33] = rat, in vivo, ip, 5 mg/kg, 24 h
Description: AUC (0 to t) in Sprague-Dawley rat at 5 mg/kg, ip administered as single dose measured upto 24 hrs by LC-MS/MS analysis

[34] = in vivo; details: Sprague-Dawley, rat, ip, 5 mg/kg; remark: listed apart in the source
Description: Tmax in Sprague-Dawley rat at 5 mg/kg, ip administered as single dose measured upto 24 hrs by LC-MS/MS analysis

[35] = AUC (0 to t) in Sprague-Dawley rat at 5 mg/kg, po administered as single dose measured upto 24 hrs by LC-MS/MS analysis; assay type: ADME, organism-based; details: in vivo
[36] = in vivo; details: zebrafish; remark: listed apart in the source
Description: Acute toxicity in juvenile zebrafish assessed as fatality rate at 150 uM after 24 hrs

[37] = Apparent clearance during terminal phase in Sprague-Dawley rat at 5 mg/kg, po administered as single dose measured upto 24 hrs by LC-MS/MS analysis; assay type: ADME, organism-based; details: in vivo, read-out: CLz/F (converted)
[38] = Subacute toxicity in PND7 Sprague-Dawley rat assessed as animal survival at 30 to 50 mg/kg/day, po administered via gavage for 14 days and measured for 28 days; assay type: organism-based; details: in vivo
[39] = system: Enterovirus A71; assay: Antiviral activity against Enterovirus 71 genotype C4 infected in BALB/c mouse assessed as protection rate at 10 mg/kg/day, ip qd for 7 days administration starting from 48 hrs post-infection and measured for 14 days; assay type: functional
[40] = Acute toxicity in juvenile zebrafish assessed as fatality rate at 50 uM after 48 hrs; details: in vivo
[41] = Apparent clearance during terminal phase in Sprague-Dawley rat at 1 mg/kg, iv administered as single dose measured upto 24 hrs by LC-MS/MS analysis; assay type: ADME, organism-based; details: in vivo

`CCO/N=C/c1ccc(OCCC(C)CCN2CCN(c3ccnc(N)c3)C2=O)cc1` (stereo unspecified) showed a mortality at 24 h, 50 µM [1] of 100%, a bioavailability at 24 h [2] of 85% and a CL/F at 24 h [3] of 381 mL/min/kg. The microsomal CLint at 5 h [4] was 38.9 µL/min/mg, the mortality at 24 h, 100 µM [5] was 100% and the mortality at 48 h, 20 µM [6] was 100%. For the same compound, the Activity [7] was “Toxic”, the bioavailability [8] was 73.3% and the Activity [9] was “Toxic”. For the same compound, the EC50 [10] was 0.025 nM, the Cmax [11] was 23.3 ng/mL and the half-life [12] was 0.5 h. For the same compound, the Activity [13] was “Toxic”, the Activity [14] was “Toxic” and the Activity [15] was “Toxic”. The half-life at 24 h [16] was 2.64 h, the Activity [17] was “Toxic” and the Cmax [18] was 81.8 ng/mL. For the same compound, the mortality at 48 h, 100 µM [19] was 100%, the Activity [20] was “Toxic” and the mortality at 48 h, 150 µM [21] was 100%. The mortality at 24 h, 200 µM [22] was 100%, the CC50 at 24 h [23] was 29.4 µM and the survival at 672 h [24] was 100%. The Activity [25] was “Toxic”, the AUCt [26] was 60.8 ng·h/mL and the mortality at 24 h, 20 µM [27] was 100%. The half-life [28] was 2.99 h, the Cmax at 24 h [29] was 149 ng/mL and the mortality at 48 h, 200 µM [30] was 100%. For the same compound, the Tmax [31] was 1 h, the Activity [32] was “Toxic” and the AUCt [33] was 258 ng·h/mL. It also gave a Tmax at 24 h [34] of 0.5 h, an AUCt [35] of 222 ng·h/mL and a mortality at 24 h, 150 µM [36] of 100%. It also gave a CL/F [37] of 1600 mL/min/kg, a survival at 672 h [38] of 100% and an Activity [39] of 100%. It also gave a mortality at 48 h, 50 µM [40] of 100% and a CLz/F [41] of 13.2 mL/min/kg.

Reference: ChEMBL document CHEMBL4376886, “Design, Synthesis, and Evaluation of Novel Enterovirus 71 Inhibitors as Therapeutic Drug Leads for the Treatment of Human Hand, Foot, and Mouth Disease” (J Med Chem, 2020)
